In US9783527B2, “Indazole ureas and method of use” (AbbVie Inc., priority 2014, dated 2017) one finds IC50 data, which are given here for 35 compounds.

Structures are written as SMILES.

For the assay, the target named is human Nav1.7 (Homo sapiens (Human), UniProt Q15858). In words: FRET-based membrane potential assay, recombinant human sodium channel Nav1.7. It counts as cell-based. The note with it: HEK293 cells stably expressing recombinant human Nav1.7; depolarization with veratridine (EC80) + scorpion venom. The essentials: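 IC50 derived by four-parameter Hill fit of percent inhibition of depolarization, measured as peak F440-480/F565-625 ratio over baseline. Stable human Nav1.7 HEK293 cells, dye-loaded with CC2-DMPE and DiSBAC2(3)/VABSC-1 at room temperature, received compound 3 min ahead of veratridine (EC80) plus scorpion venom.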
Sequence of human Nav1.7 (Q15858 whole entry): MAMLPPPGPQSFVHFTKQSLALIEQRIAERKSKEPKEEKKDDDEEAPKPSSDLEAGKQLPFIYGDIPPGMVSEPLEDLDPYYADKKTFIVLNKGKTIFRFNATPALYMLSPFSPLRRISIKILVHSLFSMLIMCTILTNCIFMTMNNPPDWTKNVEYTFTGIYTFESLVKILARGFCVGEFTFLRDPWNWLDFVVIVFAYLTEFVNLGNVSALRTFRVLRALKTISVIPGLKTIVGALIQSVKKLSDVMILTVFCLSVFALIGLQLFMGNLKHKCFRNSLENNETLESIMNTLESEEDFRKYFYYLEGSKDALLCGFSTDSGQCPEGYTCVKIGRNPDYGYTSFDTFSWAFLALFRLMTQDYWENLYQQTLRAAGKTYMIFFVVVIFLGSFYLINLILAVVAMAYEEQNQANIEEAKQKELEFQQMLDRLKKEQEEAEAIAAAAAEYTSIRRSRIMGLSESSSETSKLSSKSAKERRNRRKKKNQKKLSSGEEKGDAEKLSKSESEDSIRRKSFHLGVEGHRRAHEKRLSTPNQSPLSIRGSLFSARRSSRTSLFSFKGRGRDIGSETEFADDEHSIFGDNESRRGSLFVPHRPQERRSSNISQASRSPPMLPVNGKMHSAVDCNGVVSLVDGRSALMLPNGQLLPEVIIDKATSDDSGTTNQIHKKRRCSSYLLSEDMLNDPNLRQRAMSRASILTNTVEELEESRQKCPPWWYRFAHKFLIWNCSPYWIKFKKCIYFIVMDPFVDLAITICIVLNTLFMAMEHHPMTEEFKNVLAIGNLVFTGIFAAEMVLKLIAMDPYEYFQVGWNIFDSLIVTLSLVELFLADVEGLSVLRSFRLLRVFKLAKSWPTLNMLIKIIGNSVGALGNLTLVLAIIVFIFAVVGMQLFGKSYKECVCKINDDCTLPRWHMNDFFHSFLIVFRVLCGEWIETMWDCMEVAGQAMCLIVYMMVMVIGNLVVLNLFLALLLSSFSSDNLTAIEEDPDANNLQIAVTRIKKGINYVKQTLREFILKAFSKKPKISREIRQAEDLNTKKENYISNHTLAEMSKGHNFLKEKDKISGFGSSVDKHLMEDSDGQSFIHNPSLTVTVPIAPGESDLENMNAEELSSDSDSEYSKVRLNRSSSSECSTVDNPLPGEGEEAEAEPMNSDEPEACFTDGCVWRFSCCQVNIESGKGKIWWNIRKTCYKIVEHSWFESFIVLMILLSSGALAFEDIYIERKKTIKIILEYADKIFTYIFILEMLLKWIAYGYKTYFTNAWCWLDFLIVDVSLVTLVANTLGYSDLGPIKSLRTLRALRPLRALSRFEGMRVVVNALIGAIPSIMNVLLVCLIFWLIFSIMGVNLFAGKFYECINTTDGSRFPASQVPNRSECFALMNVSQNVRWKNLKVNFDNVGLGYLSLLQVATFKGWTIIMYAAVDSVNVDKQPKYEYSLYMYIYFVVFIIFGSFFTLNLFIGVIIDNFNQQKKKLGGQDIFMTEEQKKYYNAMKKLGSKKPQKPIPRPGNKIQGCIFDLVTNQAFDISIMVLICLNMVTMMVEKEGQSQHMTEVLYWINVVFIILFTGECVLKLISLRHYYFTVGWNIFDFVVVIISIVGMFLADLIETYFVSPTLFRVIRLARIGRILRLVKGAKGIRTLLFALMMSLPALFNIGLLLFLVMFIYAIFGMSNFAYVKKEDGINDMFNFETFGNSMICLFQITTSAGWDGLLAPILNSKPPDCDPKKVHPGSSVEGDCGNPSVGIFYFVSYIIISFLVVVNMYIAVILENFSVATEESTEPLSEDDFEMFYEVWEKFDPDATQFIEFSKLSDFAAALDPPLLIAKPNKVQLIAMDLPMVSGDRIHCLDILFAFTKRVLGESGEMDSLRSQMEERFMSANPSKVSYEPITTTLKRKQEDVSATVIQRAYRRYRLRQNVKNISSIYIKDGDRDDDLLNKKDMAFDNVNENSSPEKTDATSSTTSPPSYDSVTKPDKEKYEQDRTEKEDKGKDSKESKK
Usually IC50 stands for the midpoint of a concentration-inhibition curve. For `CC(C)(C)c1nnc(CN2CCN(c3cccc4c3cnn4-c3ccccc3F)C2=O)o1` [Example 262, 1-[(5-tert-butyl-1,3,4-oxadiazol-2-yl)methyl]-3-[1-(2-fluorophenyl)-1H-indazol-4-yl]imidazolidin-2-one], the IC50 is 2520 nM. Then `Cc1cncc(CN2CCN(c3cccc4c3cnn4-c3ccccc3F)C2=O)c1` [Example 228, 1-[1-(2-fluorophenyl)-1H-indazol-4-yl]-3-[(5-methylpyridin-3-yl)methyl]imidazolidin-2-one], with 1090 nM; and `O=C1N(CC(=O)N2CCC[C@@H]2C(F)(F)F)CCN1c1cccc2c1cnn2-c1ccccc1F` [Example 171, 1-[1-(2-fluorophenyl)-1H-indazol-4-yl]-3-{2-oxo-2-[(2R)-2-(trifluoromethyl)pyrrolidin-1-yl]ethyl}imidazolidin-2-one], with 285 nM. As for `O=C1N(Cc2ncccn2)CCN1c1cccc2c1cnn2-c1ccccc1F` [Example 218, 1-[1-(2-fluorophenyl)-1H-indazol-4-yl]-3-(pyrimidin-2-ylmethyl)imidazolidin-2-one], the half-inhibitory concentration (IC50) worked out at 2760 nM. Regarding `CC(C)(O)CN1CCN(c2cccc3c2cnn3-c2ccccc2F)C1=O` [Example 64, 1-[1-(2-fluorophenyl)-1H-indazol-4-yl]-3-(2-hydroxy-2-methylpropyl)imidazolidin-2-one], the IC50 stood at 9520 nM. In the case of `CC(C)c1cnc(CN2CCN(c3cccc4c3cnn4-c3ccccc3F)C2=O)o1` [Example 237, 1-[1-(2-fluorophenyl)-1H-indazol-4-yl]-3-[(5-isopropyl-1,3-oxazol-2-yl)methyl]imidazolidin-2-one], the IC50 was 667 nM. In the case of `O=C1C(N2CCN(c3cccc4c3cnn4-c3ccccc3F)C2=O)CCN1Cc1ccccc1` (centres unmarked) [Example 232, 1-(1-benzyl-2-oxopyrrolidin-3-yl)-3-[1-(2-fluorophenyl)-1H-indazol-4-yl]imidazolidin-2-one], the IC50 was 1150 nM.

With `O=C1N(CC(=O)N2CC3C[C@@H]4CC2C[C@H](C3)C4)CCN1c1cccc2c1cnn2-c1ccccc1F` [Example 107, 1-{2-[(1R,3r,6s,8S)-4-azatricyclo[4.3.1.1^3,8]undec-4-yl]-2-oxoethyl}-3-[1-(2-fluorophenyl)-1H-indazol-4-yl]imidazolidin-2-one], the IC50 was 1280 nM. Turning to `O=C1N(Cc2cccnc2)CCN1c1cccc2c1cnn2-c1ccccc1F` [Example 198, 1-[1-(2-fluorophenyl)-1H-indazol-4-yl]-3-(pyridin-3-ylmethyl)imidazolidin-2-one], the IC50 was 1240 nM. In the case of `Cc1nocc1CN1CCN(c2cccc3c2cnn3-c2ccccc2F)C1=O` [Example 264, 1-[1-(2-fluorophenyl)-1H-indazol-4-yl]-3-[(3-methyl-1,2-oxazol-4-yl)methyl]imidazolidin-2-one] it was 3350 nM. In the case of `O=C1N(CC2CCCC2)CCN1c1cccc2c1cnn2-c1ccccc1F` [Example 181, 1-(cyclopentylmethyl)-3-[1-(2-fluorophenyl)-1H-indazol-4-yl]imidazolidin-2-one], the IC50 turned out to be 6270 nM. Take `O=C1N(CCc2ccccc2)CCN1c1cccc2c1cnn2-c1ccccc1F` [Example 193, 1-[1-(2-fluorophenyl)-1H-indazol-4-yl]-3-(2-phenylethyl)imidazolidin-2-one]: the IC50 was determined as 998 nM. In the case of `CC(C)c1cc(CN2CCN(c3cccc4c3cnn4-c3ccccc3F)C2=O)no1` [Example 251, 1-[1-(2-fluorophenyl)-1H-indazol-4-yl]-3-[(5-isopropyl-1,2-oxazol-3-yl)methyl]imidazolidin-2-one] it was 2060 nM; in that of `O=C(CN1CCN(c2cccc3c2cnn3-c2ccccc2F)C1=O)N1CCC2(C1)OCCO2` [Example 102, 1-[2-(1,4-dioxa-7-azaspiro[4.4]non-7-yl)-2-oxoethyl]-3-[1-(2-fluorophenyl)-1H-indazol-4-yl]imidazolidin-2-one], 3490 nM. Then `NC(=O)C(=O)N1CC(N2CCN(c3cccc4c3cnn4-c3ccccc3F)C2=O)C1` [Example 270, 2-(3-{3-[1-(2-fluorophenyl)-1H-indazol-4-yl]-2-oxoimidazolidin-1-yl}azetidin-1-yl)-2-oxoacetamide], with 5870 nM; and `Cc1nnc(CN2CCN(c3cccc4c3cnn4-c3ccc(C(F)(F)F)cc3)C2=O)s1` [Example 240, 1-[(5-methyl-1,3,4-thiadiazol-2-yl)methyl]-3-{1-[4-(trifluoromethyl)phenyl]-1H-indazol-4-yl}imidazolidin-2-one], with 13400 nM. For `O=C(C1CCC1)C(O)N1CCN(c2cccc3c2cnn3-c2ccccc2F)C1=O` (centres unmarked) [Example 166, 1-(2-cyclobutyl-1-hydroxy-2-oxoethyl)-3-[1-(2-fluorophenyl)-1H-indazol-4-yl]imidazolidin-2-one], the IC50 was 435 nM. With `CC(C)CS(=O)(=O)N1CCN(c2cccc3c2cnn3-c2ccccc2F)C1=O` [Example 80, 1-[1-(2-fluorophenyl)-1H-indazol-4-yl]-3-(isobutylsulfonyl)imidazolidin-2-one], the 50% inhibitory concentration (IC50) was 2380 nM. Then `C[C@H](NC(=O)CN1CCN(c2cccc3c2cnn3-c2ccccc2F)C1=O)c1ccccc1` [Example 178, 2-{3-[1-(2-fluorophenyl)-1H-indazol-4-yl]-2-oxoimidazolidin-1-yl}-N-[(1S)-1-phenylethyl]acetamide], with 2000 nM. Then `O=C(CN1CCN(c2cccc3c2cnn3-c2ccccc2F)C1=O)NCC1CC1` [Example 209, N-(cyclopropylmethyl)-2-{3-[1-(2-fluorophenyl)-1H-indazol-4-yl]-2-oxoimidazolidin-1-yl}acetamide], with 1060 nM; and `O=C1N(c2cccc3c2cnn3-c2ccccc2F)CCN1[C@@H]1CCCC[C@H]1OCc1ccccc1` [Example 272, 1-[(1R,2R)-2-(benzyloxy)cyclohexyl]-3-[1-(2-fluorophenyl)-1H-indazol-4-yl]imidazolidin-2-one], with 338 nM; and `O=C1N(c2cnccc2F)CCN1c1cccc2c1cnn2-c1ccccc1F` [Example 154, 1-[1-(2-fluorophenyl)-1H-indazol-4-yl]-3-(4-fluoropyridin-3-yl)imidazolidin-2-one], with 2870 nM.

Take `CC[C@@H](O)CN1CCN(c2cccc3c2cnn3-c2ccccc2F)C1=O` [Example 160, 1-[1-(2-fluorophenyl)-1H-indazol-4-yl]-3-[(2R)-2-hydroxybutyl]imidazolidin-2-one]: the IC50 came to 3510 nM. In the case of `O=C(CN1CCN(c2cccc3c2cnn3-c2ccccc2F)C1=O)NCc1cc(F)ccc1F` [Example 174, N-(2,5-difluorobenzyl)-2-{3-[1-(2-fluorophenyl)-1H-indazol-4-yl]-2-oxoimidazolidin-1-yl}acetamide] it was 849 nM.

Consider `O=C(OC1CCCC1)N1CCN2C(=O)N(c3cccc4c3cnn4-c3ccccc3F)CC2C1` (centres unmarked) [Example 137, cyclopentyl 2-[1-(2-fluorophenyl)-1H-indazol-4-yl]-3-oxohexahydroimidazo[1,5-a]pyrazine-7(1H)-carboxylate], for which the IC50 worked out at 2300 nM. Then `O=C1N(CC(=O)N2[C@H]3CC[C@@H]2CC3)CCN1c1cccc2c1cnn2-c1ccccc1F` [Example 212, 1-{2-[(1s,4s)-7-azabicyclo[2.2.1]hept-7-yl]-2-oxoethyl}-3-[1-(2-fluorophenyl)-1H-indazol-4-yl]imidazolidin-2-one], with 1140 nM; and `O=C1N(Cc2cc(F)ccc2F)CCN1c1cccc2c1cnn2-c1ccccc1F` [Example 197, 1-(2,5-difluorobenzyl)-3-[1-(2-fluorophenyl)-1H-indazol-4-yl]imidazolidin-2-one], with 2140 nM. `O=C1N(Cc2cc(C3CC3)on2)CCN1c1cccc2c1cnn2-c1ccccc1F` [Example 252, 1-[(5-cyclopropyl-1,2-oxazol-3-yl)methyl]-3-[1-(2-fluorophenyl)-1H-indazol-4-yl]imidazolidin-2-one]: the IC50 turned out to be 1760 nM. In the case of `O=C1CN(C(=O)CN2CCN(c3cccc4c3cnn4-c3ccccc3F)C2=O)CC(=O)N1` [Example 103, 4-({3-[1-(2-fluorophenyl)-1H-indazol-4-yl]-2-oxoimidazolidin-1-yl}acetyl)piperazine-2,6-dione] it was 3620 nM; in that of `Cc1nnc(CN2CCCN(c3cccc4c3cnn4-c3ccccc3F)C2=O)o1` [Example 260, 1-[1-(2-fluorophenyl)-1H-indazol-4-yl]-3-[(5-methyl-1,3,4-oxadiazol-2-yl)methyl]tetrahydropyrimidin-2(1H)-one], 20000 nM; in that of `Cn1cc2cc(N3CCN(c4cccc5c4cnn5-c4ccccc4F)C3=O)ccc2n1` [Example 191, 1-[1-(2-fluorophenyl)-1H-indazol-4-yl]-3-(2-methyl-2H-indazol-5-yl)imidazolidin-2-one], 2950 nM. In the case of `Cc1ccccc1CNC(=O)CN1CCN(c2cccc3c2cnn3-c2ccccc2F)C1=O` [Example 175, 2-{3-[1-(2-fluorophenyl)-1H-indazol-4-yl]-2-oxoimidazolidin-1-yl}-N-(2-methylbenzyl)acetamide] it was 2650 nM.

As for `COC[C@H]1CC[C@H](COC)N1C(=O)CN1CCN(c2cccc3c2cnn3-c2ccccc2F)C1=O` [Example 65, 1-{2-[(2R,5R)-2,5-bis(methoxymethyl)pyrrolidin-1-yl]-2-oxoethyl}-3-[1-(2-fluorophenyl)-1H-indazol-4-yl]imidazolidin-2-one], the IC50 was determined as 678 nM.

For the compound `CCc1nc(CN2CCN(c3cccc4c3cnn4-c3ccccc3F)C2=O)cs1` [Example 250, 1-[(2-ethyl-1,3-thiazol-4-yl)methyl]-3-[1-(2-fluorophenyl)-1H-indazol-4-yl]imidazolidin-2-one], the IC50 turned out to be 1140 nM. Take `O=C1CCC(N2CCN(c3cccc4c3cnn4-c3ccccc3F)C2=O)CC1` [Example 266, 1-[1-(2-fluorophenyl)-1H-indazol-4-yl]-3-(4-oxocyclohexyl)imidazolidin-2-one]: the IC50 came to 3020 nM.
